From patent publication US20240067686A1, “NOVEL PEPTIDE CAPABLE OF INHIBITING TGF-ß SIGNALING AND USE THEREOF” (Korea Institute of Science and Technology, priority 2020, published 2024)

Columns and labels:
[1] = tested on: TGF-β cytokine released from Aspc1 cells; assay: ELISA of TGF-β cytokine concentration in Aspc1 culture media; type: cell-based; conditions: 50 ng/ml TGF-β plus peptide, 48 hours, FIG. 6
Description: Specifically, the pancreatic cancer cell line Aspc1 was seeded in a 96-well plate at a density of 2×10^4 cells/well, cultured for one day, and then treated with 50 ng/ml of TGF-β or TGF-β plus inhibitor (candidate peptide and control peptide) for 48 hours, and then the concentrations of the TGF-β cytokine in the cancer cell culture media were analyzed by ELISA technique using a TGF-β detection ELISA kit. The concentration of the extracellularly released TGF-β cytokine was determined by measuring the absorbance with a multiplate reader, and the results were graphed.

[2] = tested on: pSmad2/3 in Aspc1 cells; assay: Western blotting of pSmad2/3 expression level in Aspc1 cells; type: cell-based; conditions: TGF-β plus candidate peptide, 24 hours, FIG. 7
Description: Specifically, in order to analyze the time-dependent expression of phospho-Smad2/3 in cells by Western blotting assay, each of pancreatic cancer cell lines Bxpc3 and Aspc1 was treated with TGF-β cytokine at 50 ng/ml, and then cells obtained at different times were lysed by adding a cell lysis buffer containing a protease inhibitor (Thermo Scientific), and then sampled, thus preparing samples for Western blotting. Each of the samples was electrophoresed on SDS-PAGE gel, transferred to nitrocellulose membranes, and then blocked using skim milk powder. […] Then, the membranes were visualized by chemiluminescence using a Western ECL substrate (Thermo Scientific), and the obtained luminescence images were analyzed with Chemidoc (BioRad).
Specifically, each of the pancreatic cancer cell lines Aspc1, Bxpc3 and Panc1 was seeded in a 6-well plate at a density of 1×10^6 cells/well and cultured for one day. The next day, the cells were treated with TGF-β or TGF-β plus candidate peptide for 24 hours (control: 15% ACN—candidate peptide solvent, DMSO—P144 peptide solvent, P144), and the expression levels of pSmad2/3 and total Smad2/3 were analyzed by the Western blotting method described in Example 2.

| Sequence | inhibition of extracellular release of TGF-β cytokine [1] | inhibition of expression level of pSmad2/3 [2] |
| --- | --- | --- |
| FCLGPCPYIWCLDTF (P5) [candidate peptide derived from TGF-β, target TGFβRI/II] | directly inhibited the extracellular release of TGF-β cytokine | – |
| FCLGPCPYIWCLDTVLSL (P7) [candidate peptide derived from TGF-β, target TGFβRI/II] | directly inhibited the extracellular release of TGF-β cytokine | – |
| FCLGPCPYIWSLDTVLSL (P6) [candidate peptide derived from TGF-β, target TGFβRI/II] | directly inhibited the extracellular release of TGF-β cytokine | best ability to inhibit the expression level of pSmad2/3 |
| TIVYYVVIKPKVEQ (P14) [candidate peptide derived from TGF-β, target TGFβRII] | directly inhibited the extracellular release of TGF-β cytokine | – |
